Measured values taken from patent US9207219B1, “Fully automated analytical method for determination of chloroethers in water and urine sample” (priority 2014, dated 2015).
Converted amounts (≈) assume the structure as drawn.

Assays:
[1] = cited from earlier work
[2] = cited from earlier work; remark: listed apart in the source
[3] = Concentration of CEs in human urine determined by fully automated FA-SPME/GC-MS; conditions: urine of a volunteer working at water desalination facility; urine diluted 1:1 with ultrapure water before extraction
Method: Analyses were performed using a gas chromatograph (Agilent technologies, 7890A GC) coupled with a quadrupole mass selective spectrometer (Agilent technologies, 5975C) equipped with an inert ion source and provided with a split-splitless injection port. An A HP-5 GC fused silica capillary column (Agilent 19091J-413; 30 m×320 μm ID×0.25 μm thickness) was selected to separate the analytes. CTC CombiPAL autosampler (GC sampler 80, Zwingen, Switzerland) was used for the full automated FA-SPME. Ultra high purity helium (99.999%, Abdulah Hashim, Al-Khobar, Saudi Arabia) was used as the carrier gas at a flow rate of 1.3 mL min^−1. The samples were injected in the splitless mode. The temperature program used for the analyses was as follows: the initial temperature was 40° C. held 1 min which was then increased to 118° C. at 10° C. min^−1 and held for 3 min, then to 190 C at 15° C. min^−1 and held for 4 min. The total run time was 18.6 min. The injection port, ion source and interface temperatures were 280° C., 230° C., and 250° C., respectively. For qualitative determinations, the MSD was operated in full-scan mode from m/z 50 to 550 and selective ion monitoring mode was used for the quantification of the analytes. […]
The applicability of the proposed FA-SPME technique for real water and urine sample matrices were evaluated. […]

Compound	minimum half-life in water [1] [years]	Solubility at 20-25° C. [2] [µg/mL]	Vapor pressure at 20-25° C. [2] [mmHg]	Henry's law constant at 20° C. [2]	Diffusion coefficient in air [2] [cm^2 s^−1]	Diffusion coefficient in water [2] [cm^2 s^−1]	concentration in real sample, Human urine [3] [ng/mL]
ClCCOCOCCCl [BCEM, Bis(2-chloroethoxy)methane]	≥ 2	1353.4 (≈ 7.82 mM)	0.179	0.001	0.058	7.11E−06	11.5
ClCCOCCCl [BCEE, Bis(2-chloroethyl)ether]		10200 (≈ 71.3 mM)	1.34	0.00089	0.069	7.53E−06	30.8
